Test results from patent publication US20230235378A1, “LZHEIMER'S DISEASE-SPECIFIC ALTERATIONS OF PROTEIN KINASE C EPSILON (PKC-EPSILON PROTEIN LEVELS” (WEST VIRGINIA UNIVERSITY BOARD OF GOVERNORS ON BEHALF OF …, priority 2010, published 2023).
Like-named read-outs stand apart in the source and are kept apart here.

Key:
[1] = target: T1, purified PKC (Homo sapiens, UniProt Q02156); assay: PKC isozyme specificity: purified PKC preincubated with compound, activity measured radiometrically; type: biochemical
T1 construct: purchased Calbiochem
T1 sequence (Q02156 1-737): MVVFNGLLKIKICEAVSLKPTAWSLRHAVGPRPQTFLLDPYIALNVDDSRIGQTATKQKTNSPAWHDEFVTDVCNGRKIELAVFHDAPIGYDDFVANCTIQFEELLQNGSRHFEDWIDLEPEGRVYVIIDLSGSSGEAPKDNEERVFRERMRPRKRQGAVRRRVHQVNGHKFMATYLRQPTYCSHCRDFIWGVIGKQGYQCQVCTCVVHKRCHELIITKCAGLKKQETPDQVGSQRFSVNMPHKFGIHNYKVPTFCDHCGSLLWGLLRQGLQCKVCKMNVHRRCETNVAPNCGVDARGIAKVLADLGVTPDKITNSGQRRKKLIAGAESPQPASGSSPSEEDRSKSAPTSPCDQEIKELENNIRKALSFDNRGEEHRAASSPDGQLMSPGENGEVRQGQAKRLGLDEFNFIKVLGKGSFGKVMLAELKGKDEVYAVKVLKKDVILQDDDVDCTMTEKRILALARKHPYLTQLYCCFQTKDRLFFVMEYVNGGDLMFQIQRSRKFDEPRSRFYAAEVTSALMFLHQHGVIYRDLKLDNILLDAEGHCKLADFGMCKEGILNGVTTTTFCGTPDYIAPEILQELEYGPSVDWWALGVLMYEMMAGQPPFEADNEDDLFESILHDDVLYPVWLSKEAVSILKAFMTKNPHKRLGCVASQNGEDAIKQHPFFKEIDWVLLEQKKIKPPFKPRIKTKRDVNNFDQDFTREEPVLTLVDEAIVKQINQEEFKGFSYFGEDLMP
Procedure: (§1) Protein Kinase C Assay. Rat hippocampal cells were cultured and scraped in 0.2 ml homogenization buffer (20 mM Tris-HCl, pH 7.4, 50 mM NaF, 1 μg/ml leupeptin, and 0.1 mM PMSF) and homogenized by sonication in a Marsonix micro-probe sonicator (5 sec, 10 W). To measure PKC, 10 μl of cell homogenate or purified PKC isozyme (purchased from Calbiochem) was incubated for 15 min at 37° C. in the presence of 10 μM histones, 4.89 mM CaCl2, 1.2 μg/μl phosphatidyl-L-serine, 0.18 μg/μl 1,2-dioctanoyl-sn-glycerol, 10 mM MgCl2, 20 mM HEPES (pH 7.4), 0.8 mM EDTA, 4 mM EGTA, 4% glycerol, 8 μg/ml aprotinin, 8 μg/ml leupeptin, and 2 mM benzamidine. 0.5 μCi [γ-32P]ATP was added and 32P-phosphoprotein formation was measured by adsorption onto phosphocellulose as described previously. Nelson and Alkon, J. Neurochemistry. 1995; 65: 2350-57. For measurements of activation by BR-101 (DCP-LA) and similar compounds, PKC activity was measured in the absence of diacylglycerol and phosphatidylserine, as described by Kanno et al., and PKC δ, ε, η, and were measured in the absence of added EGTA and CaCl2, as described by Kanno et al., J. Lipid Res. 2006; 47: 1146-50. Low concentrations of Ca2+ are used because high Ca2+ interacts with the PKC phosphatidylserine binding site and prevents activation. For measurements of bryostatin activation, 1,2-diacylglycerol was omitted unless otherwise stated.
To determine their PKC isozyme specificity, the new compounds were preincubated with purified PKC for five minutes and the PKC activity was measured radiometrically.

[2] = system: Aß; assay: Aß production in N2a neuroblastoma cells transfected with human APPSwe/PS1D (Aß 1-42 ELISA); type: cell-based, mouse; conditions: for levels of both intracellular and secreted Aß: 24 h incubation, various concentrations
Procedure: (§2) Aß Measurement and Cell Viability Assay. Aß was measured using an Aß 1-42 human fluorimetric ELISA kit (Invitrogen) according to the manufacturer's instructions. Results were measured in a Biotek Synergy HT microplate reader. AlamarBlue and CyQuant NF (Invitrogen) according to the manufacturer's instructions.
To measure the effects of PKC activation on Aß production, we used mouse neuro2a (N2a) neuroblastoma cells transfected with human APPSwe/PS1D, which produce large quantities of Aβ. Petanceska et al., J. Neurochem. 1996; 74: 1878-84. […] With bryostatin, which activates PKC by binding to the diacylglycerol-binding site, the inhibition was biphasic, with concentrations of 20 nM or higher producing no net effect. This may be explained by the ability of this class of PKC activators to downregulate PKC when used at high concentrations.

[3] = system: Aß; assay: Degradation of exogenous monomeric Aβ-42 in SH-SY5Y cells; type: cell-based, human; conditions: 0.01 to 10 μM; 100 nM exogenous monomeric Aβ-42; 24 h
Procedure: as §2
To determine whether the reduced levels of Aß caused by PKC activators were due to inhibition of Aß synthesis or activation of Aß degradation, we applied BR-111 (DHA-CP6) (0.01 to 10 μM) and low concentrations (100 nM) of exogenous monomeric Aβ-42 to cultured SH-SY5Y cells. This concentration of Aß is too low to produce measurable toxicity or cell death. Since SH-SY5Y cells produce only trace amounts of Aβ, this experiment was an effective test of the ability of PKC activators to enhance Aß degradation. By 24 h, most of the Aß had been taken up by the cells and the concentration of Aß in the culture medium was undetectable.

[4] = Cell viability assay (alamar Blue and CyQuant staining); type: cell-based
Procedure: as §2

[5] = system: TACE; assay: TACE assay in cell homogenates of neuronal cells; type: cell-based; conditions: human SH-SY5Y, N2a mouse neuroblastoma cells, primary neurons from rat hippocampus
Procedure: TACE Assay. TACE was measured by incubating 5 μl cell homogenate, 3 μl buffer (50 mM Tris-HCl 7.4 plus 25 mM NaCl plus 4% glycerol), and 1 μl of 100 μM TACE substrate IV (Aβz-LAQAVRSSSR-DPa) (Calbiochem) for 20 min at 37° in 1.5-ml polypropylene centrifuge tubes (Jin et al., Anal. Biochem. 2002; 302: 269-75). The reaction was stopped by cooling to 4° C. The samples were diluted to 1 ml and the fluorescence was rapidly measured (ex=320 nm, em=420 nm) in a Spex Fluorolog 2 spectrofluorometer.
Buxbaum et al., J. Biol. Chem. 1998; 273: 27765-67; Etcheberrigaray et al., Proc. Natl. Acad. Sci. USA. 2006: 103:8215-20. However, many of these earlier studies were carried out in fibroblasts and other non-neuronal cell types, which appear to respond differently to PKC activators than neurons.

[6] = system: Endothelin-converting enzyme (ECE); assay: ECE assay in neuroblastoma cells (fluorimetric, McaBK2); type: cell-based, human; conditions: bryostatin 0.27 nM, BR-101 1 μM, BR-111 1
Procedure: ECE Assay. SH-5757 neuroblastoma cells were incubated with bryostatin (0.27 nM), BR-101 (DCP-LA) (1 μM), and BR-111 (DHA-CP6) (1 Endothelin-converting enzyme (ECE) was measured fluorimetrically using the method of Johnson and Ahn, Anal. Biochem. 2000; 286: 112-118. A sample of cell homogenate (20 μl) was incubated in 50 mM MES-KOH, pH 6.0, 0.01% C 12E10 (polyoxyethylene-10-lauryl ether), and 15 μM McaBK2 (7-Methoxycoumarin-4-acetyl [Ala7-(2,4-Dinitrophenyl)Lys9]-bradykinin trifluoroacetate salt) (Sigma-Aldrich). After 60 min at 37° C., the reaction was quenched by adding trifluoroacetic acid to 0.5%. The sample was diluted to 1.4 ml with water and the fluorescence was measured at ex=334 nm, em=398 nm.

[7] = system: PKC; assay: PKC activity in cultured rat hippocampal H19-7/IGF-IR cells; type: cell-based
Procedure: Cell Culture. Rat hippocampal H19-7/IGF-IR cells (ATCC, Manassas, Va.) were plated onto poly-L-lysine coated plates and grown at 35° C. in DMEM/10% FCS for several days until about 50% coverage was obtained. The cells were then induced to differentiate into a neuronal phenotype by replacing the medium with 5 ml N2 medium containing 10 ng/ml basic fibroblast growth factor at 39° C. and grown in T-75 flasks at 37° C. Human SH-SY5Y neuroblastoma cells (ATCC) were cultured in 45% F 12K/45% MEM/10% FCS. Mouse N2A neuroblastoma cells were cultured in DMEM/10% FCS without glutamine. Rat hippocampal neurons from 18-day-old embryonic
as §1
PKC activators that bind to the diacylglycerol binding site, including bryostatin, gnidimacrin, and phorbol esters, produce a transient activation of PKC activity, followed by a prolonged downregulation. Nelson et al., Trends in Biochem. Sci. 2009; 34: 136-45. This was confirmed in cultured rat hippocampal cells. Incubation of rat 1119-7/IGF-IR cells with (0.04 nM and 0.2 nM) bryostatin produced a 2-fold activation that lasted 30 min, followed by a 20% downregulation that returned to baseline by 24 h (data not shown). […] This sustained activation was only observed in primary neurons.

[8] = system: PKC; assay: PKC in perforated fibers of AD transgenic mice (FIG. 8); type: in vivo
[9] = system: α-secretase; conditions: human fibroblasts, cited from earlier work
[10] = system: rats; conditions: cited from earlier work

SMILES | concentration needed to activate PKC, relative to BR-101 (DCP-LA) ([1]; compared with BR-101 (DCP-LA)) | activation of purified PKC ([1]; used as methyl esters) | levels of both intracellular and secreted Aß [2] | concentration dependence of Aß inhibition ([2]; concentrations up to 10 to 100 μM, no evidence of downregulation at higher concentrations) | reduction of cellular levels of Aß [3] | effect on cell survival or proliferation [4] | change in TACE activity [5] | change in ECE activity [6] | downregulation of PKC following activation ([7]; 0.04 nM and 0.2 nM) [%] | time of return of PKC to baseline ([7]; 0.04 nM and 0.2 nM) [h] | activation of PKC activity ([7]; 0.04 nM and 0.2 nM, data not shown) [fold] | downregulation of PKC activity ([7]; 8 h, data not shown) | loss of PKC in perforated fibers [8] | increase of initial rate of α-secretase activity ([9]; 10 μM) [fold] | increase of initial rate of α-secretase activity ([9]; 100 μM) [fold] | rate of learning [10]
CCC1CC1CC1CC1CC1CC1CC1CC1CC1CC1CC1CC1CCC(=O)OC (stereo not shown) [BR-111, methyl-3-(2-((2-((2-((2-((2-((2-ethylcyclopropyl)methyl)cyclopropyl)methyl)cyclopropyl)methyl)-cyclopropyl)methyl)cyclopropyl)methyl)cyclopropyl)propanoate] | approx. 100 times lower | activated purified PKC to a similar extent | markedly reduced | monotonically increasing inhibition | 45-63% | no effect | only produced small increases | sustained increase | – | – | – | – | – | – | – | –
CCC/C=C/C=C/C(=O)O[C@H]1/C(=C/C(=O)OC)C[C@H]2C[C@H]([C@@H](C)O)OC(=O)C[C@H](O)C[C@@H]3C[C@H](OC(C)=O)C(C)(C)[C@](O)(C[C@@H]4C/C(=C/C(=O)OC)C[C@H](/C=C/C(C)(C)[C@]1(O)O2)O4)O3 [bryostatin] | – | – | markedly reduced | – | – | – | only produced small increases | sustained increase | 20 | ≤ 24 | 2 | at or near the baseline | prevents the loss of PKC in perforated fibers | 16 | 132 | dramatically increase
